Results published in ChEMBL document CHEMBL1121734, “New synthesis of N-[4-[[(2-amino-4(3H)-oxopyrido[3,2-d]pyrimidin-6-yl)methyl]amino]benzoyl]-L-glutamic acid (8-deazafolic acid) and the preparation of some 5,6,7,8-tetrahydro derivatives” (1981).

Target: T1, Dihydrofolate reductase (Bos taurus) (UniProt P00376)
T1 sequence (whole entry): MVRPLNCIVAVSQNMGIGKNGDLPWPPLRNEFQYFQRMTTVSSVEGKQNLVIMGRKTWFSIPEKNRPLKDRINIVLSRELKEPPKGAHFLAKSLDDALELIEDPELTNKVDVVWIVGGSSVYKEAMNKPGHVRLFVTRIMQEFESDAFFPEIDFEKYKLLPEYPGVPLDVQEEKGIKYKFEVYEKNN
Conditions: not given

Row | ID50 [µM] | Structure (SMILES)
1 | 4.6 | Nc1nc(O)c2c(n1)CCC1CN(c3ccc(C(=O)NC(CCC(=O)O)C(=O)O)cc3)C=[N+]21 (configuration not stated)

System: Epidermoid carcinoma cell line
Experiment: Concentration required for inhibition of colony formation (cytotoxicity) against human epidermoid carcinoma cell number 2
Type: functional
Conditions: read-out: ED50 (the source's name)

Row | Structure (SMILES) | EC50 [µM]
2 | Nc1nc(O)c2nc(CN(C=O)c3ccc(C(=O)NC(CCC(=O)O)C(=O)O)cc3)ccc2n1 (configuration not stated) | 32
3 | CN(Cc1cnc2nc(N)nc(N)c2n1)c1ccc(C(=O)N[C@@H](CCC(=O)O)C(=O)O)cc1 [METHOTREXATE] | 0.001
4 | Nc1nc(O)c2nc(C(=O)Nc3ccc(C(=O)NC(CCC(=O)O)C(=O)O)cc3)ccc2n1 (configuration not stated) | 100
5 | Nc1nc(O)c2c(n1)CCC(CN(C=O)c1ccc(C(=O)NC(CCC(=O)O)C(=O)O)cc1)N2 (configuration not stated) | 28
6 | Nc1nc(O)c2nc(CNc3ccc(C(=O)NC(CCC(=O)O)C(=O)O)cc3)ccc2n1 (configuration not stated) | 23
7 | Nc1nc(O)c2c(n1)CCC1CN(c3ccc(C(=O)NC(CCC(=O)O)C(=O)O)cc3)C=[N+]21 (configuration not stated) | 8
